Where no end group is shown, it is not given here. KLH = keyhole limpet hemocyanin carrier protein
What was measured:
HLA-A*0201 human T cells = test: IFN-γ ELISPOT on human T-cell cultures activated with BFA5 peptides pulsed on autologous dendritic cells; type: cell-based; details: for BFA5 peptides eliciting high IFN-γ release (>200 spots/100,000 cells): a peptide given is positive
Experimental: A library of 100 peptides from the BFA5/NYBR-1 coding sequence that are predicted to be medium to high binders to HLA-A*0201 were designed using Rammensee and Parker algorithms. The library was sub-divided into 10 pools of ten peptides (Table III), and each pool was used to activate 10 different T cell cultures after pulsing peptides on to mature autologous dendritic cells.
ELISPOT analysis was performed on human T-cell cultures activated through four rounds of stimulation with each pool of BFA5 peptides. Reactivity against a CMV pp 65 peptide and a Flu matrix peptide were used as positive controls for T-cell activation in the experiments. Each experiment was performed with PBMC and dendritic cells from a single HLA-A*0201^+ donor designated as “AP10”. […] Similar results were obtained for both BFA4 and BFA5/NYBR-1 with a different HLA-A*0201. […] Cultures having a reading of 600 spots have more than this number of spots.
A large number of the BFA5 peptide pools of are reactive as shown by the high levels of IFN-γ production. Each reactive peptide pool was then separated into individual peptides and analyzed for immunogencity using ELISPOT analysis to isolate single reactive BFA5 peptides. BFA5 is highly immunogenic with several reactive single peptides than that of BFA4. Similar results were obtained in two independent PBMC culture experiments.

peptide-loaded T2 cells = test: 51Cr-release CTL assay of peptide-activated T cells; details: a peptide given is positive
Experimental: In addition to ELISPOT analysis, human T cells activated by BFA5 peptides were assayed to determine their ability to function as CTL. The cells were activated using peptide-pulsed dendritic cells followed by CD40 ligand-activated B cells (5 rounds of stimulation). […] Isolated T cells were tested in ^51Cr-release assays using peptide-loaded T2 cells. The % specific lysis at a 10:1, 5:1, and 1:1 T-cell to target ratio is shown for T2 cells pulsed with either pools of BFA5/NYBR-1 peptides or with individual peptides.

[1] = Rabbit immunization with BFA5 peptides, serum IgG titer; type: in vivo; details: for IgG titer × 10^5 (After first Immunization Rb1/Rb2): after first immunization (peptide in FCA); for IgG titer × 10^5 (After second Immunization Rb1/Rb2): after second immunization (KLH-coupled peptide in FIA)
Experimental: Prebleed samples from rabbits were processed and stored at −20° C. Rabbits were immunized as follows: 1) the peptides were administered as an emulsion with Freund's Complete Adjuvant (FCA); and, 2) two weeks later, the peptides were coupled with Keyhole-Limpet Hemocyanin (KLH)-coupled and administered as an emulsion with Freund's Incomplete Adjuvant FIA.

49 (SVPNKAFEL; listed as Homo sapiens) [compound 49]
BFA5 peptides eliciting high IFN-γ release (>200 spots/100,000 cells) (HLA-A*0201 human T cells; Donor AP10): SVPNKAFEL

85 (KCTALMLAV; listed as Homo sapiens) [compound 85]
BFA5 peptides eliciting high IFN-γ release (>200 spots/100,000 cells) (HLA-A*0201 human T cells; Donor AP10): KCTALMLAV

84 (NLVDVYGNM; listed as Homo sapiens) [compound 84]
BFA5 peptides eliciting high IFN-γ release (>200 spots/100,000 cells) (HLA-A*0201 human T cells; Donor AP10): NLVDVYGNM | BFA5 peptides inducing CTL lysis of pulsed cells (peptide-loaded T2 cells; Donor AP10): NLVDVYGNM

8 (KVSIPTKAL; listed as Homo sapiens) [compound 8]
BFA5 peptides eliciting high IFN-γ release (>200 spots/100,000 cells) (HLA-A*0201 human T cells; Donor AP10): KVSIPTKAL | BFA5 peptides inducing CTL lysis of pulsed cells (peptide-loaded T2 cells; Donor AP31): KVSIPTKAL

11 (TVSQKDVCL; listed as Homo sapiens) [compound 11]
BFA5 peptides eliciting high IFN-γ release (>200 spots/100,000 cells) (HLA-A*0201 human T cells; Donor AP10): TVSQKDVCL

KLH-MTKRKKTINLNIQDAQKRTALHW ({KLH}-MTKRKKTINLNIQDAQKRTALHW; listed as Homo sapiens) [CLP 2977]
IgG titer × 10^5 (After first Immunization Rb1/Rb2) ([1]; rabbit Rb1): 25 × 10^5 | IgG titer × 10^5 (After second Immunization Rb1/Rb2) ([1]; rabbit Rb1): 256 × 10^5 | IgG titer × 10^5 (After first Immunization Rb1/Rb2) ([1]; rabbit Rb2): 6 × 10^5 | IgG titer × 10^5 (After second Immunization Rb1/Rb2) ([1]; rabbit Rb2): 64 × 10^5

74 (ATCGMKVSI; listed as Homo sapiens) [compound 74]
BFA5 peptides eliciting high IFN-γ release (>200 spots/100,000 cells) (HLA-A*0201 human T cells; Donor AP10): ATCGMKVSI | BFA5 peptides inducing CTL lysis of pulsed cells (peptide-loaded T2 cells; Donor AP10): ATCGMKVSI

81 (ILKEKNAEL; listed as Homo sapiens) [compound 81]
BFA5 peptides eliciting high IFN-γ release (>200 spots/100,000 cells) (HLA-A*0201 human T cells; Donor AP10): ILKEKNAEL | BFA5 peptides eliciting high IFN-γ release (>200 spots/100,000 cells) (HLA-A*0201 human T cells; Donor AP31): ILKEKNAEL

67 (VLKKKLSEA; listed as Homo sapiens) [compound 67]
BFA5 peptides eliciting high IFN-γ release (>200 spots/100,000 cells) (HLA-A*0201 human T cells; Donor AP31): VLKKKLSEA

KLH-AENTMLTSKLKEKQDKEILEAEI ({KLH}-AENTMLTSKLKEKQDKEILEAEI; listed as Homo sapiens) [CLP 2981]
IgG titer × 10^5 (After first Immunization Rb1/Rb2) ([1]; rabbit Rb1): 8 × 10^5 | IgG titer × 10^5 (After second Immunization Rb1/Rb2) ([1]; rabbit Rb1): 256 × 10^5 | IgG titer × 10^5 (After first Immunization Rb1/Rb2) ([1]; rabbit Rb2): 4 × 10^5 | IgG titer × 10^5 (After second Immunization Rb1/Rb2) ([1]; rabbit Rb2): 64 × 10^5

59 (MLKLEIATL; listed as Homo sapiens) [compound 59]
BFA5 peptides eliciting high IFN-γ release (>200 spots/100,000 cells) (HLA-A*0201 human T cells; Donor AP10): MLKLEIATL | BFA5 peptides eliciting high IFN-γ release (>200 spots/100,000 cells) (HLA-A*0201 human T cells; Donor AP31): MLKLEIATL | BFA5 peptides inducing CTL lysis of pulsed cells (peptide-loaded T2 cells; Donor AP31): MLKLEIATL

KLH-NYNNHLKNRIYQYEKEKAETENS ({KLH}-NYNNHLKNRIYQYEKEKAETENS; listed as Homo sapiens) [CLP 2982]
IgG titer × 10^5 (After first Immunization Rb1/Rb2) ([1]; rabbit Rb1): 2/2 × 10^5 | IgG titer × 10^5 (After second Immunization Rb1/Rb2) ([1]; rabbit Rb1): 64 × 10^5 | IgG titer × 10^5 (After first Immunization Rb1/Rb2) ([1]; rabbit Rb2): 2/2 × 10^5 | IgG titer × 10^5 (After second Immunization Rb1/Rb2) ([1]; rabbit Rb2): 32 × 10^5

BFA4: tumor antigen BFA4 (SEQ ID NOS.: 1 and 2), compared with BFA5 in T-cell ELISPOT
ELISPOT reactivity (IFN-γ production) of peptide pools (HLA-A*0201 human T cells; four rounds of stimulation, HLA-A*0201+ donor AP10, counts per 100,000 cells): markedly reactive

30 (KVMEINREV; listed as Homo sapiens) [compound 30]
BFA5 peptides eliciting high IFN-γ release (>200 spots/100,000 cells) (HLA-A*0201 human T cells; Donor AP10): KVMEINREV

28 (SLSKILDTV; listed as Homo sapiens) [compound 28]
BFA5 peptides eliciting high IFN-γ release (>200 spots/100,000 cells) (HLA-A*0201 human T cells; Donor AP10): SLSKILDTV | BFA5 peptides eliciting high IFN-γ release (>200 spots/100,000 cells) (HLA-A*0201 human T cells; Donor AP31): SLSKILDTV | BFA5 peptides inducing CTL lysis of pulsed cells (peptide-loaded T2 cells; Donor AP31): SLSKILDTV

54 (GVTAEHYAV; listed as Homo sapiens) [compound 54]
BFA5 peptides eliciting high IFN-γ release (>200 spots/100,000 cells) (HLA-A*0201 human T cells; Donor AP31): GVTAEHYAV

KLH-TSEKFTWPAKGRPRKIAWEKKED ({KLH}-TSEKFTWPAKGRPRKIAWEKKED; listed as Homo sapiens) [CLP 2978]
IgG titer × 10^5 (After first Immunization Rb1/Rb2) ([1]; rabbit Rb1): 25/25 × 10^5 | IgG titer × 10^5 (After second Immunization Rb1/Rb2) ([1]; rabbit Rb1): 64 × 10^5 | IgG titer × 10^5 (After first Immunization Rb1/Rb2) ([1]; rabbit Rb2): 25/25 × 10^5 | IgG titer × 10^5 (After second Immunization Rb1/Rb2) ([1]; rabbit Rb2): 256 × 10^5

77 (AELQMTLKL; listed as Homo sapiens) [compound 77]
BFA5 peptides eliciting high IFN-γ release (>200 spots/100,000 cells) (HLA-A*0201 human T cells; Donor AP10): AELQMTLKL | BFA5 peptides inducing CTL lysis of pulsed cells (peptide-loaded T2 cells; Donor AP10): AELQMTLKL | BFA5 peptides inducing CTL lysis of pulsed cells (peptide-loaded T2 cells; Donor AP31): AELQMTLKL

51 (NLNYAGDAL; listed as Homo sapiens) [compound 51]
BFA5 peptides eliciting high IFN-γ release (>200 spots/100,000 cells) (HLA-A*0201 human T cells; Donor AP10): NLNYAGDAL | BFA5 peptides eliciting high IFN-γ release (>200 spots/100,000 cells) (HLA-A*0201 human T cells; Donor AP31): NLNYAGDAL

72 (SLKINLNYA; listed as Homo sapiens) [compound 72]
BFA5 peptides eliciting high IFN-γ release (>200 spots/100,000 cells) (HLA-A*0201 human T cells; Donor AP10): SLKINLNYA | BFA5 peptides eliciting high IFN-γ release (>200 spots/100,000 cells) (HLA-A*0201 human T cells; Donor AP31): SLKINLNYA | BFA5 peptides inducing CTL lysis of pulsed cells (peptide-loaded T2 cells; Donor AP31): SLKINLNVA

9 (SIPTKALEL; listed as Homo sapiens) [compound 9]
BFA5 peptides eliciting high IFN-γ release (>200 spots/100,000 cells) (HLA-A*0201 human T cells; Donor AP10): SIPTKALEL | BFA5 peptides inducing CTL lysis of pulsed cells (peptide-loaded T2 cells; Donor AP31): SIPTKALEL

32 (AVYSEILSV; listed as Homo sapiens) [compound 32]
BFA5 peptides eliciting high IFN-γ release (>200 spots/100,000 cells) (HLA-A*0201 human T cells; Donor AP10): AVYSEILSV

63 (ALRIQDIEL; listed as Homo sapiens) [compound 63]
BFA5 peptides eliciting high IFN-γ release (>200 spots/100,000 cells) (HLA-A*0201 human T cells; Donor AP10): ALRIQDIEL

24 (QLQSKNMWL; listed as Homo sapiens) [compound 24]
BFA5 peptides eliciting high IFN-γ release (>200 spots/100,000 cells) (HLA-A*0201 human T cells; Donor AP10): QLQSKNMWL | BFA5 peptides eliciting high IFN-γ release (>200 spots/100,000 cells) (HLA-A*0201 human T cells; Donor AP31): QLQSKNMWL | BFA5 peptides inducing CTL lysis of pulsed cells (peptide-loaded T2 cells; Donor AP31): QLQSKNMWL

KLH-DEILPSESKQKDYEENSWDTESL ({KLH}-DEILPSESKQKDYEENSWDTESL; listed as Homo sapiens) [CLP 2979]
IgG titer × 10^5 (After first Immunization Rb1/Rb2) ([1]; rabbit Rb1): 12 × 10^5 | IgG titer × 10^5 (After second Immunization Rb1/Rb2) ([1]; rabbit Rb1): 256 × 10^5 | IgG titer × 10^5 (After first Immunization Rb1/Rb2) ([1]; rabbit Rb2): 25 × 10^5 | IgG titer × 10^5 (After second Immunization Rb1/Rb2) ([1]; rabbit Rb2): 512 × 10^5

57 (KSQEPAFHI; listed as Homo sapiens) [compound 57]
BFA5 peptides eliciting high IFN-γ release (>200 spots/100,000 cells) (HLA-A*0201 human T cells; Donor AP31): KSQEPAFHI

78 (VFAADICGV; listed as Homo sapiens) [compound 78]
BFA5 peptides eliciting high IFN-γ release (>200 spots/100,000 cells) (HLA-A*0201 human T cells; Donor AP31): VFAADICGV

12 (SVPNKALEL; listed as Homo sapiens) [compound 12]
BFA5 peptides eliciting high IFN-γ release (>200 spots/100,000 cells) (HLA-A*0201 human T cells; Donor AP10): SVPNKALEL

61 (MLKKEIAML; listed as Homo sapiens) [compound 61]
BFA5 peptides eliciting high IFN-γ release (>200 spots/100,000 cells) (HLA-A*0201 human T cells; Donor AP31): MLKKEIAML

37 (SLTPLLLSI; listed as Homo sapiens) [compound 37]
BFA5 peptides eliciting high IFN-γ release (>200 spots/100,000 cells) (HLA-A*0201 human T cells; Donor AP10): SLTPLLLSI | BFA5 peptides eliciting high IFN-γ release (>200 spots/100,000 cells) (HLA-A*0201 human T cells; Donor AP31): SLTPLLLSI | BFA5 peptides inducing CTL lysis of pulsed cells (peptide-loaded T2 cells; Donor AP31): SLTPLLLSI

KLH-RLTLNQEEEKRRNADILNEKIRE ({KLH}-RLTLNQEEEKRRNADILNEKIRE; listed as Homo sapiens) [CLP 2980]
IgG titer × 10^5 (After first Immunization Rb1/Rb2) ([1]; rabbit Rb1): 25 × 10^5 | IgG titer × 10^5 (After second Immunization Rb1/Rb2) ([1]; rabbit Rb1): 1024 × 10^5 | IgG titer × 10^5 (After first Immunization Rb1/Rb2) ([1]; rabbit Rb2): 12 × 10^5 | IgG titer × 10^5 (After second Immunization Rb1/Rb2) ([1]; rabbit Rb2): 128 × 10^5

Source: US8021664B2, “Tumor antigens Bfa5 for prevention and/or treatment of cancer” (Sanofi Pasteur Limited, priority 2003, dated 2011)
